Experiments:
[1] = tested on: TNF-α production in LPS-stimulated human whole blood; experiment: Inhibition of TNF-α production from human whole blood (hWBA); format: cell-based; details: IC50 for TNF-α production, LPS-stimulated human whole blood; read-out: hWBA
[2] = Area under the curve determination of plasma levels in rats (rrAUC); format: in vivo; details: rat, oral 10 mg/kg, plasma 0.5-6 h; read-out: RR AUC (nM · h), rapid rat AUC (rrAUC)

Row | SMILES | IC50 [1] | AUC [2]
1 | COc1ccc2c(c1F)C(=O)N(C[C@@]1(C#Cc3cccnc3)NC(=O)NC1=O)C2 [Compound 2267] | 134 nM | 2.44 µM·h
2 | COc1ccc2c(c1)C(=O)N(C[C@@]1(C#Cc3ccc(-c4c(C)nn(C)c4C)nc3)NC(=O)NC1=O)C2 [Compound 2268] | 9030 nM | 1.07 µM·h
3 | CCN1CCC(C(=O)OC)(c2ccc(C#C[C@]3(CN4Cc5ccc(OC)cc5C4=O)NC(=O)NC3=O)cc2)CC1 [Compound 2276] | 288 nM | 2.32 µM·h
4 | COc1ccc2c(c1)C(=O)N(C[C@@]1(C#Cc3ccc(C4(C)NC(=O)NC4=O)c(F)c3)NC(=O)NC1=O)C2 (stereo partly drawn) [Compound 2282] | 243 nM | 0.042 µM·h

Further molecules by falling IC50 [1], results first:

Row | IC50 [1] | AUC [2] | SMILES
5 | 2220 nM | 0.187 µM·h | COc1ccc2c(c1)C(=O)N(C[C@@]1(C#Cc3cccnc3-c3cnn(C)c3)NC(=O)NC1=O)C2 [Compound 2263]
6 | 2090 nM | 0.271 µM·h | COc1ccc2c(c1)C(=O)N(C[C@@]1(C#Cc3ccc(-c4ccccc4O)nc3)NC(=O)NC1=O)C2 [Compound 2277]
7 | 396 nM | 16.4 µM·h | COc1ccc2c(c1F)C(=O)N(C[C@@]1(C#Cc3ccc(C)nc3)NC(=O)NC1=O)C2 [Compound 2274]
8 | 193 nM | 2.89 µM·h | COc1ccc2c(c1F)C(=O)N(C[C@@]1(C#Cc3cccnc3C)NC(=O)NC1=O)C2 [Compound 2273]
9 | 137 nM | 0.014 µM·h | COc1ccc2c(c1)C(=O)N(C[C@@]1(C#Cc3ccc4c(c3)CCCC43NC(=O)NC3=O)NC(=O)NC1=O)C2 (stereo partly drawn) [Compound 2312]
